According to ChEMBL document CHEMBL1201862, “PubChem BioAssay data set” (2004):
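Values below derive from 48-hour exposures of cells grown in 96-well plates, with endpoints linearly interpolated between the two concentrations bracketing the appropriate inhibition level. At the GI50, growth is halved.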 Activity calls are given as the source filed them. Cut-off read from the data, not from the text of the source: active = GI50 up to about 1.1 µM and inactive = higher.

Columns and labels:
Assay in all cases: NCI-60 cell line screen, 48 h
[1] = tested on: UO-31
[2] = tested on: RPMI-8226
[3] = tested on: Malme-3M
[4] = tested on: SNB-19
[5] = tested on: UACC-62
[6] = tested on: T47D
[7] = tested on: MDA-MB-231
[8] = tested on: CCRF-CEM
[9] = tested on: MCF7
[10] = tested on: IGROV-1
[11] = tested on: NCI-H522
[12] = tested on: NCI/ADR-RES
[13] = tested on: HT-29
[14] = tested on: Hs-578T
[15] = tested on: U-251
[16] = tested on: MDA-MB-435
[17] = tested on: HL-60
[18] = tested on: UACC-257
[19] = tested on: HCC 2998
[20] = tested on: MDA-N

SMILES | GI50 [1] | GI50 [2] | GI50 [3] | GI50 [4] | GI50 [5] | GI50 [6] | GI50 [7] | GI50 [8] | GI50 [9] | GI50 [10] | GI50 [11] | GI50 [12] | GI50 [13] | GI50 [14] | GI50 [15] | GI50 [16] | GI50 [17] | GI50 [18] | GI50 [19] | GI50 [20]
CO[C@@H]1[C@H](O)CC[C@]2(CO2)[C@H]1[C@@]1(C)O[C@@H]1CC=C(C)C | 83.2 µM (inactive) | 185 µM (inactive) | 81.8 µM (inactive) | 79.1 µM (inactive) | 54.3 µM (inactive) | > 200 µM (inactive) | 157 µM (inactive) | > 200 µM (inactive) | > 200 µM (inactive) | 104 µM (inactive) | > 200 µM (inactive) | > 200 µM (inactive) | > 200 µM (inactive) | > 200 µM (inactive) | 2.29 µM (inactive) | 95.5 µM (inactive) |  |  |  | 
C1CSCCSCCS1 | > 100 µM (inactive) | > 100 µM (inactive) |  | > 100 µM (inactive) | > 100 µM (inactive) | > 100 µM (inactive) | > 100 µM (inactive) | > 100 µM (inactive) | > 100 µM (inactive) | > 100 µM (inactive) | > 100 µM (inactive) | > 100 µM (inactive) | > 100 µM (inactive) |  | > 100 µM (inactive) | > 100 µM (inactive) | > 100 µM (inactive) | > 100 µM (inactive) | > 100 µM (inactive) | > 100 µM (inactive)
O=C(NCc1cccc2ccccc12)N/N=C\c1ccc(Cl)cc1 | > 100 µM (inactive) | 77.1 µM (inactive) | > 100 µM (inactive) | > 100 µM (inactive) | > 100 µM (inactive) | > 100 µM (inactive) |  | > 100 µM (inactive) | 43.3 µM (inactive) | > 100 µM (inactive) | 36.6 µM (inactive) | > 100 µM (inactive) | > 100 µM (inactive) |  | > 100 µM (inactive) | 28.1 µM (inactive) | > 100 µM (inactive) | > 100 µM (inactive) | 57.7 µM (inactive) | 9.82 µM (inactive)
O=S(=O)(c1cc(Cl)ccc1Cl)N1CCN(c2ccc(Cl)c(Cl)c2)CC1 | 35.8 µM (inactive) | > 100 µM (inactive) | 37.7 µM (inactive) | 14.1 µM (inactive) |  | 20.4 µM (inactive) | > 100 µM (inactive) | 44.8 µM (inactive) | > 100 µM (inactive) | 36.8 µM (inactive) | 18.5 µM (inactive) |  | 88.1 µM (inactive) | 29.9 µM (inactive) | 21.7 µM (inactive) |  | > 100 µM (inactive) | 33.3 µM (inactive) | 62.1 µM (inactive) | 
CC(C)C1(Cl)CCC2C3(C)CCCC(C)(C(=O)O)C3CC(Cl)C2(Cl)C1Cl (centres undefined) | 32.1 µM (inactive) | 20.8 µM (inactive) | 25.5 µM (inactive) | 34.8 µM (inactive) | 24.7 µM (inactive) |  | 33.3 µM (inactive) | 22.8 µM (inactive) | 30.5 µM (inactive) | 54.7 µM (inactive) | 20 µM (inactive) | 32.5 µM (inactive) | 14.7 µM (inactive) | 37.5 µM (inactive) | 20.7 µM (inactive) | 25.9 µM (inactive) | 22.3 µM (inactive) | 31.1 µM (inactive) | 27.4 µM (inactive) | 32.4 µM (inactive)
CC1(C)[C@@H]2C[C@H]1[C@@H](Cc1cccc(C[C@H]3c4cc(-c5ccccn5)ncc4[C@H]4C[C@@H]3C4(C)C)c1)c1cc(-c3ccccn3)ncc12 | 1.22 µM (inactive) | 1.47 µM (inactive) |  | 3.46 µM (inactive) | 2.92 µM (inactive) | 2.44 µM (inactive) | > 31.8 µM (inactive) | 1.11 µM (active) | 4.92 µM (inactive) | 3.49 µM (inactive) | 8.93 µM (inactive) | 3.78 µM (inactive) | 3.17 µM (inactive) |  | 2.92 µM (inactive) | 2.96 µM (inactive) | 1.29 µM (inactive) | 4.62 µM (inactive) | 12.4 µM (inactive) | 6.22 µM (inactive)
C#CCNC(CCCNC(=N)N)C(=O)O (centres undefined) | > 100 µM (inactive) | > 100 µM (inactive) | > 100 µM (inactive) | > 100 µM (inactive) | > 100 µM (inactive) | > 100 µM (inactive) | > 100 µM (inactive) | > 100 µM (inactive) |  | > 100 µM (inactive) | > 100 µM (inactive) | > 100 µM (inactive) | > 100 µM (inactive) | > 100 µM (inactive) | > 100 µM (inactive) | > 100 µM (inactive) | > 100 µM (inactive) | > 100 µM (inactive) | > 100 µM (inactive) | 
CC[C@]1(Cc2ccc(OC)c(OC)c2)C=[N+]([O-])O[C@H](OC2CCCC2(c2ccccc2)c2ccccc2)[C@@H]1OC(=O)C(C)(C)C (some centres undefined) | 1.77 µM (inactive) |  |  | 3.84 µM (inactive) | 3.66 µM (inactive) | 2.49 µM (inactive) | 5.56 µM (inactive) | 2.6 µM (inactive) | 2.74 µM (inactive) | 2.62 µM (inactive) | 1.61 µM (inactive) | 2.29 µM (inactive) | 1.86 µM (inactive) | 2.72 µM (inactive) | 5.62 µM (inactive) | 2.03 µM (inactive) | 2.18 µM (inactive) | 3.5 µM (inactive) | 1.94 µM (inactive) | 
C=CCn1c2ccccc2[n+]2cc([N+](=O)[O-])ccc12 | 48.4 µM (inactive) |  | 15.8 µM (inactive) | 66.2 µM (inactive) | 28.6 µM (inactive) | 32.3 µM (inactive) | 34.7 µM (inactive) | 20.9 µM (inactive) | 26.3 µM (inactive) | 21.3 µM (inactive) | 16 µM (inactive) | 57 µM (inactive) | 18.3 µM (inactive) |  | 31.9 µM (inactive) | 26.4 µM (inactive) | 17.3 µM (inactive) | 21.3 µM (inactive) | 54.8 µM (inactive) | 23.9 µM (inactive)
CC(=O)OC1CC2C(=O)C(=O)C1(C)C2(C)C (centres undefined) | > 100 µM (inactive) | > 100 µM (inactive) | > 100 µM (inactive) | > 100 µM (inactive) | > 100 µM (inactive) | > 100 µM (inactive) | > 100 µM (inactive) | > 100 µM (inactive) | > 100 µM (inactive) | > 100 µM (inactive) |  | > 100 µM (inactive) | > 100 µM (inactive) |  | > 100 µM (inactive) | > 100 µM (inactive) | > 10 µM (inactive) | > 100 µM (inactive) | > 100 µM (inactive) | > 100 µM (inactive)
CC(=O)CC(=O)Nn1c(-c2cccs2)nc2ccc(I)cc2c1=O | > 46.9 µM (inactive) | > 57.9 µM (inactive) | > 52.6 µM (inactive) | > 68.2 µM (inactive) | > 50.6 µM (inactive) | > 62.1 µM (inactive) |  | > 46.8 µM (inactive) | > 54.2 µM (inactive) | > 46.7 µM (inactive) | > 49.5 µM (inactive) | > 46.5 µM (inactive) | > 100 µM (inactive) |  | > 56 µM (inactive) | > 60.7 µM (inactive) | > 66.5 µM (inactive) | 33 µM (inactive) | > 39.8 µM (inactive) | > 100 µM (inactive)
